Assay results: patent publication US20110201679A1, “Use of Tocotrienols for Elevating IKBKAP Gene Expression and Treating Neurodegenerative Diseases or Disorders” (priority 2004, published 2011)
Entries after “also recorded” stand apart in the source; their conditions may differ.

How the values were obtained:
Assay type in all cases: cell-based, human
[1] = tested on: IKAP transcript; experiment: Real-time RT-PCR analysis of IKAP RNA in FD-derived and normal fibroblast cells; settings: for effect on cellular levels of IKAP transcripts: 48 h, 25 and 2.5 μg/ml
Description: In order to identify agents that could modulate the level of the wild type IKAP transcript produced in FD-derived cells, either by increasing transcription or modulating splicing, FD-derived fibroblast cells (GM00850) were treated with a variety of biological agents. RNA was isolated from the treated cells and was subjected to real-time RT-PCR analysis using primers specific for the wild-type IKAP transcript. More specifically, FD-derived fibroblast cells, seeded in 96-well plates at a concentration of 4000 cells/well for at least one day prior to treatment, were treated in triplicate for approximately 48 h unless noted otherwise. After treatment, the cells were washed once with PBS and then lysed in 50 μl of Cell-to-cDNA lysis buffer (Ambion) at 75° C. for 12 min. After one freeze-thaw cycle, 4 μl of lysate was used in 20 μl RT-PCRs. The Quantitect SYBR Green RT-PCR Kit (Qiagen) was used for real-time RT-PCR analysis of the relative quantities of the exon 20-containing transcript (wild-type), the exon 20-lacking transcript (mutant), as well as an exon 34-35-containing transcript that is unaffected by the FD-causing mutation (total). An ABI PRISM 7000 Sequence Detection System (Applied Biosystems), programmed as follows, was used to perform the real-time RT-PCR and analysis: 50° C. for 30 min and 95° C. for 15 min for one cycle, followed by 40 cycles of 94° C. for 15 s, 57-60° C. for 30 s, and 72° C. for 30 s. To present relative amounts of PCR product obtained, results were expressed as changes in the threshold cycle (ΔCT) compared to untreated cells. The threshold cycle refers to the PCR cycle at which the fluorescence of the PCR is increased to a calculated level above background. A change of 1.0 in CT, assuming 100% PCR efficiency, would reflect a twofold change in the starting amount of the RNA template that was amplified.
To control for the amount of RNA present in the samples, RT-PCR amplification of ribosomal 18S RNA was performed on all cell lysates. […] For this analysis, TaqMan Ribosomal RNA Control Reagents were used with the TaqMan EZ RT-PCR Kit (Applied Biosystems) as per the manufacturer's protocol.
To characterize the kinetics of the δ-tocotrienol-mediated accumulation of the IKAP transcript, FD-derived (GM00850 and GM04663) and normal (GM02912) fibroblast cells were exposed to 12.5 μg/ml of δ-tocotrienol for periods up to 48 h and the amount of the IKAP-encoding transcripts was determined by real-time RT-PCR, as described above.
To evaluate the IKAP mRNA-inducing ability of other molecules in the vitamin E family that are related to […], GM00850, GM04663, and GM02912 cells were incubated in the absence or presence of 25 and 2.5 μg/ml of either α, β, γ, or δ tocopherols or tocotrienols.
As described above, α, β, γ or δ tocopherol alone had no impact on IKAP mRNA levels when FD-derived or normal fibroblasts were treated for 48 hr. To determine if α-tocopherol in combination with tocotrienols would have an impact on IKAP mRNA levels, FD-derived GM00850 and GM04663 fibroblasts were treated for 48 hr with either 25 or 12.5 μg/mL of a mixture of α, β, γ and δ tocotrienols alone or in combination with 50 μg/mL of α-tocopherol.

[2] = tested on: full-length IKAP; experiment: Western blot analysis of full-length IKAP in fibroblast cells; settings: 12.5 μg/ml
Description: Western blot analysis was performed on cellular extracts prepared from δ-tocotrienol-treated FD-derived (GM00850 and GM04663) and normal (GM02912) fibroblast cells, using a monoclonal antibody generated against a peptide corresponding to exons 23-28 of IKAP that only recognize the full-length IKAP. Basically, cells treated for 48 h with 12.5 μg/ml of δ-tocotrienol were washed twice with PBS and lysed in 0.5 M Tris-HCl, pH 6.8, containing 1.4% SDS. Western blot analysis was performed essentially as described by B. Y. Rubin (Proc. Natl. Acad. Sci. USA 82: 6637-6641 (1985)). Essentially, equal amounts of protein fractionated on a 7% NuPAGE Tris-Acetate Gel (Invitrogen) were blotted onto nitrocellulose (Bio-Rad) and probed overnight with a monoclonal anti-body (BD Biosciences) directed against the carboxyl end (exons 23-28) of IKAP. The blot was then washed and probed with a goat anti-mouse antibody conjugated to alkaline phosphatase (Promega), followed by detection with Western Blue Substrate solution (Promega).

[3] = tested on: IKAP transcript; experiment: Real-time RT-PCR analysis of wild-type IKAP RNA in LA1-55n cells; settings: LA1-55n neuroblastoma cells, 48 h, varying concentrations
Description: FIG. 7. Real-time RT-PCR analysis of wild-type IKAP RNA in LA1-55n cells. cDNA was prepared from LA1-55n cells incubated for 48 h in the absence or presence of varying concentrations of δ-tocotrienol. The relative amounts of IKAP RNA present in these cells were determined by real-time RT-PCR. The results presented represent mean values obtained in three experiments, each done in triplicate.
The response of the neuroblastoma-derived LA1-55n cell line, which has characteristics of sympathetic neurons (J. L. Biedler, et al., “Human Neuroblastoma Cell Differentiation, in: D. Raghavan, et al., Principles and Practice of Genitourinary Oncology, Lippincott-Raven, pp. 1053-1061, (1997); D. L. Lazarova, et al., “A Neuronal-Specific RNA-Binding Protein, is a Putative Regulator of N-myc pre-mRNA Processing/Stability in Malignant Human Neuroblasts”, Oncogene 18: 2703-2710 (1999)), to treatment with […] was examined.

[4] = tested on: IKBKAP gene transcription; experiment: Nuclear run-on transcription assay in GM04663 cells; settings: 48 h, 12.5 μg/ml, versus untreated cells
Description: The δ-tocotrienol-mediated accumulation of the IKAP-encoding transcripts was either the result of an elevation in the level of gene transcription or the stabilization of this RNA. To distinguish between these possibilities, nuclear run-on transcription assays were performed on cells incubated in either the presence or absence of δ-tocotrienol. Isolation of nuclei and transcription in the presence of [α-^32P]UTP (Perkin Elmer Life Sciences) were performed essentially as described by B. Y. Rubin (J. Biol. Chem. 266: 24245-24248 (1991)). Briefly, confluent monolayers of GM04663 cells in 175 cm^2 flasks were incubated for 48 h in the presence or absence of 12.5 μg/ml δ-tocotrienol. The cells were then lysed by Dounce homogenization and the resultant nuclei were incubated with 250 μCi [α-^32P]UTP. The radiolabeled RNA was treated with DNase, purified with Trizol LS reagent (Invitrogen), and then hybridized to 5 μg of plasmid containing either a full-length cDNA encoding IKAP or a cDNA encoding GAPDH that was immobilized on Nytran Super-Charge nylon membrane (Schleicher & Schuell) using a spot-blot apparatus. The amount of radiolabeled RNA bound was detected by autoradiography and then quantitated by densitometric scanning of the X-ray film.

[5] = GM00850, GM04663 and GM02912 cells

Compound: Cc1cc(O)c(C)c2c1O[C@](C)(CCC[C@H](C)CCC[C@H](C)CCCC(C)C)CC2 [β-tocopherol, β-Tocopherol]
- effect on cellular levels of IKAP transcripts [1, 5]: no impact; also recorded: no effect

Compound: CC(C)=CCC/C(C)=C/CC/C(C)=C/CC[C@]1(C)CCc2cc(O)cc(C)c2O1 [δ-tocotrienol, δ-Tocotrienol]
- level of wild-type IKAP transcript ([1]; FD-derived fibroblast GM00850, about 48 h, varying concentrations): concentration-dependent elevation
- change in threshold cycle (ΔCT) relative to untreated cells ([1]; GM00850, 48 h, highest concentration tested): 2.5
- increase in levels of truncated and wild-type IKAP transcripts ([1]; GM00850, 48 h, highest concentration tested, relative to untreated cells): as much as a sixfold increase
- levels of IKAP-encoding transcripts over time ([1]; GM00850, GM04663 and GM02912 cells, 12.5 μg/ml, 24 h after start of treatment, versus untreated cells, accumulation continues through 48 h): significantly elevated levels
- effect on cellular levels of IKAP transcripts [1, 5]: as much as sixfold
- increase in amount of full-length IKAP produced ([2]; FD-derived fibroblasts GM00850 and GM04663, 48 h, on average): approximate two-fold increase
- IKAP level as percentage of the level present in untreated normal (GM02912) cells ([2]; treated FD-derived cells GM00850 and GM04663, 48 h, untreated FD cells 26-30%): 48-65%
- increase in IKAP transcript levels [3]: almost a twofold increase
- increase in IKBKAP gene transcription [4]: approximately 3.5 fold

Compound: CC(C)=CCC/C(C)=C/CC/C(C)=C/CC[C@]1(C)CCc2cc(O)c(C)c(C)c2O1 [γ-tocotrienol, γ-Tocotrienol]
- effect on cellular levels of IKAP transcripts [1, 5]: as much as sixfold

Compound: CC(C)=CCC/C(C)=C/CC/C(C)=C/CC[C@]1(C)CCc2c(C)c(O)cc(C)c2O1 [β-tocotrienol, β-Tocotrienol]
- effect on cellular levels of IKAP transcripts [1, 5]: as much as sixfold

Compound: Cc1c(O)cc2c(c1C)O[C@](C)(CCC[C@H](C)CCC[C@H](C)CCCC(C)C)CC2 [γ-tocopherol, γ-Tocopherol]
- effect on cellular levels of IKAP transcripts [1, 5]: no impact; also recorded: no effect

Compound: CC(C)=CCC/C(C)=C/CC/C(C)=C/CC[C@]1(C)CCc2c(C)c(O)c(C)c(C)c2O1 [α-tocotrienol, α-Tocotrienol]
- effect on cellular levels of IKAP transcripts [1, 5]: as much as sixfold

Compound: Cc1c(C)c2c(c(C)c1O)CC[C@@](C)(CCC[C@H](C)CCC[C@H](C)CCCC(C)C)O2 [α-tocopherol, α-Tocopherol]
- effect on cellular levels of IKAP transcripts [1, 5]: no impact; also recorded: no effect
- enhancement of tocotrienol-induced increase in IKAP mRNA ([1]; GM00850 and GM04663, 48 hr, 50 μg/mL α-tocopherol with 25 or 12.5 μg/mL mixture of α, β, γ and δ tocotrienols, versus tocotrienol-only treated cells): ≤ 40%
- effect on IKAP mRNA levels, alone ([1]; GM00850 and GM04663 fibroblasts, 48 hr, 50 μg/mL α-tocopherol alone): no effect

Compound: Cc1cc(O)cc2c1O[C@](C)(CCC[C@H](C)CCC[C@H](C)CCCC(C)C)CC2 [δ-tocopherol, δ-Tocopherol]
- effect on cellular levels of IKAP transcripts [1, 5]: no impact; also recorded: no effect
